How the values were obtained:
[1] = tested on: mouse primary astrocytes; experiment: LysoTracker staining of mouse primary astrocytes (lysosomal biogenesis); assay type: cell-based; conditions: 24 h
Experimental: [The procedure below names another cell line; the source lists this cell line under the same test.] LysoTracker Staining: Fibroblasts cultured to 70-80% confluence were subjected to different stimuli under reduced serum (2%) DMEM medium followed by incubation with 75 nM LysoTracker Red DND99 (Invitrogen) for 45 mins. Cells were then washed thoroughly with filtered PBS and mounted on glass slides and viewed under BX41 fluorescence microscope

[2] = tested on: TPP1; experiment: TPP1 activity assay on cell extract of primary mouse astrocytes; assay type: cell-based; conditions: 24 h
Experimental: 12(A) Cells were treated with different concentrations of aspirin for 24 h under serum-free condition followed by Western blot for TPP1. 12(B) Cells were treated with 5 μM aspirin for different time periods under serum-free condition followed by Western blot for TPP1. Actin was run as a house keeping molecule. 12(C) Cells were treated with different concentrations of aspirin for 24 h under serum-free condition followed by TPP1 activity assay using cell extract containing 5 μg of total protein and Ala-Ala-Phe 7-amido-4-methylcoumarin as substrate. Results represent three independent experiments.

[3] = at high doses; cited from earlier work
[4] = tested on: Lamp2, Limp2 and Npc1; experiment: mRNA of lysosomal genes by real-time PCR in mouse primary astrocytes; assay type: cell-based; conditions: 5 μM aspirin, serum-free
Experimental: Quantitative Real-Time PCR: The mRNA quantification was performed using the ABIPrism7700 sequence detection system (Applied Biosystems, Foster City, CA) using SYBR Select master mix (Applied Biosystems). The mRNA expression of the targeted genes was normalized to the level of Gapdh mRNA and data was processed by the ABI Sequence Detection System 1.6 software.

[5] = tested on: PPAR luciferase reporter (PPRE-x3-TK-luc); experiment: PPAR luciferase reporter (PPRE-x3-TK-luc) in astrocytes; assay type: cell-based, mouse; conditions: different doses of aspirin, 4 h
Experimental: FIG. 14(A)-(B) illustrates activation of PPARα by aspirin in primary mouse astrocytes. 14(A) Cells were treated with 5 μM aspirin for different min intervals followed by isolation of nuclear extracts and electrophoretic mobility shift assay for monitoring DNA-binding activity of PPARα using PPARα-binding site of the Tfeb promoter as a probe. 14(B) Astrocytes isolated from wild type, PPARα (−/−) and PPARβ (−/−) mice were transfected with PPAR luciferase reporter (PPRE-x3-TK-luc) plasmid and after 24 h of transfection, cells were stimulated with different doses of aspirin. After 4 h, firefly luciferase activity was measured in total cell extracts. Results are mean +SD of three different experiments. ^ap<0.001 vs control.

[6] = tested on: LAMP2; experiment: LAMP2 protein by Western blot and immunocytochemistry in mouse primary brain cells; assay type: cell-based; conditions: for level of LAMP2 (Western blot): different doses of aspirin
Experimental: Immunostaining of Cells: Immunocytochemistry was performed as described earlier (29). Briefly, 8 well chamber slides containing mouse primary astrocytes, mouse neurons were cultured to 70-80% confluence were fixed with chilled Methanol (Fisher Scientific, Waltham, MA) overnight, followed by two brief rinses with filtered PBS. Samples were blocked with 2% BSA (Fisher Scientific) in PBS containing Tween 20 (Sigma) and Triton X-100 (Sigma) for 30 min and incubated at room temperature under shaking conditions for 2 hr in PBS containing the following anti-mouse primary antibodies: TFEB (1:1000; Abcam), GFAP, (1:1000; DAKO), LAMP2 (1:500, Abcam), NeuN (1:500, Millipore), and MAP2 (1:200, Millipore). […] Following four 15 minute washes with filtered PBS, cells were incubated for 4-5 min with 4′, 6-diamidino-2-phenylindole (DAPI, 1:10,000; Sigma). The samples were run in an EtOH and Xylene (Fisher) gradient, mounted, and observed under Olympus BX41 fluorescence microscope.
Immunoblotting: Western blotting was conducted as described earlier (31, 32) with modifications. Briefly, cells were scraped in 1× RIPA buffer, protein was measured using Bradford reagent and sodium dodecyl sulfate (SDS) buffer was added and electrophoresed on NuPAGE® Novex® 4-12% Bis-Tris gels (Invitrogen) and proteins transferred onto a nitrocellulose membrane (Bio-Rad) using the Thermo-Pierce Fast Semi-Dry Blotter.
The membrane was then washed for 15 min in TBS plus Tween 20 (TBST) and blocked for 1 hr in TBST containing BSA. Next, membranes were incubated overnight at 4° C. under shaking conditions with the following 1° antibodies; TFEB (1:1000, Abcam), LAMP2 (1:500, Abcam) and β-actin (1:800; Abcam, Cambridge, MA). The next day, membranes were washed in TBST for 1 hr, incubated in 2° antibodies against 1° antibody hosts (all 1:10,000; Jackson ImmunoResearch) for 1 hr at room temperature, washed for one more hour and visualized under the Odyssey® Infrared Imaging System (Li-COR, Lincoln, NE).

[7] = tested on: Tfeb; experiment: TFEB protein by immunoblot in mouse primary astrocytes; assay type: cell-based; conditions: aspirin 2 and 5 μM, 12 h, serum-free
Experimental: Isolation of Primary Mouse Astroglia: Astroglia were isolated from mixed glial cultures as described (24, 25) according to the procedure of Giulian and Baker (26). Briefly, on day 9, the mixed glial cultures were washed three times with Dulbecco's modified Eagle's medium/F-12 and subjected to shaking at 240 rpm for 2 h at 37° C. on a rotary shaker to remove microglia. After 2 days, the shaking was repeated for 24 h for the removal of oligodendroglia and to ensure the complete removal of all nonastroglial cells. The attached cells were seeded onto new plates for further studies. Immunoblotting: Western blotting was conducted as described earlier (31, 32) with modifications. Briefly, cells were scraped in 1× RIPA buffer, protein was measured using Bradford reagent and sodium dodecyl sulfate (SDS) buffer was added and electrophoresed on NuPAGE® Novex® 4-12% Bis-Tris gels (Invitrogen) and proteins transferred onto a nitrocellulose membrane (Bio-Rad) using the Thermo-Pierce Fast Semi-Dry Blotter. The membrane was then washed for 15 min in TBS plus Tween 20 (TBST) and blocked for 1 hr in TBST containing BSA. […] Densitometric Analysis: Protein blots were analyzed using ImageJ (NIH, Bethesda, Md.) and bands were normalized to their respective β-actin loading controls. […]

With `CC(=O)Oc1ccccc1C(=O)O` [aspirin] the “lysosomal biogenesis (lyso-tracker staining)” value (shortened to “lysosomal biogenesis”) ([1]; PPARα (−/−) astrocytes, 5 μM aspirin) was “not PPARα (−/−)”, the “lysosomal biogenesis” value ([1]; PPARβ (−/−) astrocytes, 5 μM aspirin) was “increased lysosomal biogenesis” and the “lysosomal biogenesis” value ([1]; WT astrocytes, 5 μM aspirin) was “increased lysosomal biogenesis”. The “lysosomal biogenesis” value ([1]; astrocytes, aspirin 10 μM, serum-free) was “not very potent in increasing lysosomal biogenesis”, the “lysosomal biogenesis” value ([1]; astrocytes, aspirin 2 and 5 μM, serum-free) was “markedly increased lysosomal biogenesis” and the TPP1 activity ([2]; aspirin 10 μM) was “not 10 μM”. For the same compound, the TPP1 activity ([2]; aspirin 2 and 5 μM) was “increase in TPP1 activity”, the toxic effects [3] was “gastric ulcers, stomach bleeding, and tinnitus” and the “LAMP2 mRNA expression (real-time PCR), time course” value [4] was “time-dependent increase in LAMP2 mRNA”. The PPRE-driven luciferase activity ([5]; PPARα (−/−) astrocytes) was “not PPARα (−/−)”, the PPRE-driven luciferase activity ([5]; PPARβ (−/−) astrocytes) was “increased PPRE-driven luciferase activity” and the PPRE-driven luciferase activity ([5]; WT astrocytes) was “increased PPRE-driven luciferase activity”. For the same compound, the “level of LAMP2 (Western blot)” value ([6]; PPARα (−/−) astrocytes, 24 h) was “not PPARα (−/−)”, the “level of LAMP2 (Western blot)” value ([6]; PPARβ (−/−) astrocytes, 24 h) was “dose-dependently increased the level of LAMP2” and the “level of LAMP2 (Western blot)” value ([6]; WT astrocytes, 24 h) was “dose-dependently increased the level of LAMP2”. For the same compound, the “LAMP2 protein expression (Western blot), time course” value ([6]; astrocytes, 5 μM aspirin, serum-free) was “time-dependent increase”, the “LAMP2 protein expression (Western blot), dose” value ([6]; astrocytes, aspirin 2 and 5 μM, 24 h) was “increase in LAMP2 protein expression” and the “TFEB protein level (Western blot)” value [7] was “able to increase the protein level of TFEB”.

Source: US12023345B2, “Compositions and methods for treating lysosomal disorders” (RUSH UNIVERSITY MEDICAL CENTER, priority 2014, dated 2024)
